Experimental data from patent publication US20260258003A1, “SLACK-ACTIVATING COMPOUNDS AND THEIR MEDICAL USE” (Johann Wolfgang Goethe-Universität Frankfurt am Main, priority 2023, published 2026).

Tested on: SLIGRL-induced scratching behavior of mice
Test: SLIGRL-induced acute itch model
Assay type: in vivo
Conditions: 10 mg/kg i.p.
Description: Further studies were conducted to assess the in vivo efficacy of Compound 6 and Compound 10 in mice. In detail, experiments were performed in 8 to 16 weeks old C57BL/6N mice (Charles River, Sulzfeld, Germany) and animals with a genetic deletion of Slack (Slack^−/− mice^27) of either sex. Animals were housed on a 12 h light/dark cycle with access to food and water ad libitum. […]
Acute itch behavior of the mice was monitored using a histamine-based, chloroquine-based and SLIGRL-based acute itch behavior model. […] Numbers of scratching bouts directed to the nape of the neck were assessed over 30 min by videotaping.
Antipruritic efficacy of Compound 6 in histamine-independent itch evoked by SLIGRL injection: The chloroquine-induced scratching in mice is driven by activation of MrgprA3 in the NP2 population of sensory neurons^4,29. To further explore the antipruritic efficacy of Compound 6 in histamine-independent itch, the inventors assessed the behavioral response after s.c. injection of the peptide Ser-Leu-Ile-Gly-Arg-Leu (SLIGRL) that evokes scratching by activation of MrgprC11 (ref^30), which is expressed in the NP2 and NP3 population^4. […]

`O=C(O)COCCN1CCN(C2=Nc3ccccc3Oc3ccc(Cl)cc32)CC1` [Compound 6, 2-(2-(4-(2-Chlorodibenzo[b,f][1,4]oxazepin-11-yl)piperazin-1-yl)ethoxy) acetic acid] was tested, and the SLIGRL-induced scratching behavior was “significantly inhibited”.
